Source: patent US4508730A, “1,7-Dihydro-pyrrolo[3,4-e][1,4]diazepin-2(3H)-one derivatives a process for preparing them and their use as anticonvulsant and anti-anxiety agents” (Gruppo Lepetit S.p.A., priority 1982, dated 1985)
Where a name gives a salt, the structure may show the parent alone.

Legend:
[1] = antipentylenetetrazole bioassay in mice; type: in vivo; settings: Mus musculus, 2 h; for responders at 100 mg/kg: sc, 100 mg/kg compound 30 minutes before fatal dose of pentylenetetrazole (140 mg/kg s.c.), read-out: protection against pentylenetetrazole (animals still alive two hours after administration); for ED50: ip, i.p., pentylenetetrazole 140 mg/kg s.c., read-out: ED50 (dose at which 50% of the treated animals are protected)
Procedure: To evaluate the anticonvulsant activity the compounds of the present invention have been submitted to the antipentylenetetrazole bioassay in mice. The experiments have been carried out by following essentially the methodology described by Berger in J. Pharm. Exptl. Ther. 104, 468, (1952). More particularly, a fatal dose of pentylenetetrazole (140 mg/kg s.c.) was administered to groups of ten mice each, treated, 30 minutes before the administration of the convulsant agent, with a selected dose (100 mg/kg) of the potential anticonvulsant compound. […] Since the animals of the control group died within 30 minutes, the effectiveness of the compounds tested was expressed as the number of animals of the group which were still alive two hours after the administration of pentylenetetrazole, out of the total number of animals of the group (10). In this experiment the compounds of examples 1,2,8, 9, 10, 11, 13, 14, 15, 16, and 17 were fully effective giving a 100% protection against pentylenetetrazole.

benzodiazepine receptors = experiment: "benzodiazepine receptors" test, displacement of ^3 H-Diazepam from rat brain receptors; type: binding; settings: ^3 H-Diazepam displacement, read-out: In vitro Ki
Procedure: The anti-anxiety activity of the compounds of the present invention was shown by submitting the compounds to the "benzodiazepine receptors" test.
These experiments were carried out by following the method described by H. Mohler and T. Okada in Life Sciences, Vol. 20, 2101-2110 (1977).

GABA receptor = GABA receptor assay, displacement of ^3 H-GABA; type: binding; settings: for IC50: ^3 H-GABA displacement; for displacement of ^3 H-GABA from its receptors: at micromolar concentrations
Procedure: Furthermore some of the compounds of the present invention have been tested in the GABA receptor assay. In this test which was carried out by following the methodology described by M. Herschel and R. J. Baldessarini in Life Sciences, 24, 1849-1854, (1979), the compounds of examples 3 and 15 resulted to be active in displacing more than 50% of ^3 H-GABA from its receptors at micromolar concentrations. […] (As for the GABA's mediating effect of the anxiolytic action of benzodiazepines, see for instance S. J. Enna--Biochemical Pharmacology--30, No. 9, 907-913, (1981)).

SMILES	responders at 100 mg/kg [1]	Ki (benzodiazepine receptors)	IC50 (GABA receptor)	displacement of ^3 H-GABA from its receptors (GABA receptor)	ED50 [1]
Cc1c2c(cn1C)N(C)C(=O)C(OC(=O)c1ccccc1)N=C2c1ccccc1Cl (centres unmarked) [Example 1, 5-(2-chlorophenyl)-1,7-dihydro-1,6,7-trimethyl-3-(phenylcarbonyloxy)-pyrrolo[3,4-e][1,4]diazepin-2(3H)-one]	100%	6.7 nM	–	–	–
Cc1c2c(cn1C)N(C)C(=O)C(OC(=O)C(C)(C)C)N=C2c1ccccc1Cl (centres unmarked) [Example 2, 5-(2-chlorophenyl)-1,7-dihydro-1,6,7-trimethyl-3-(2,2-dimethylpropanoyloxy)-pyrrolo[3,4-e][1,4]diazepin-2(3H)-one]	100%	17.2 nM	–	–	–
Cc1ccccc1C(=O)OC1N=C(c2ccccc2Cl)c2c(cn(C)c2C)N(C)C1=O (centres unmarked) [Example 3]	–	1.7 nM	35000 nM	more than 50%	–
CCCC(=O)OC1N=C(c2ccccc2)c2c(cn(C)c2C)NC1=O (centres unmarked) [Example 8, 1,7-dihydro-6,7-dimethyl-3-[(1-oxobutyl)oxy]-5-phenyl-pyrrolo[3,4-e][1,4]diazepin-2(3H)-one]	100%	–	–	–	–
Cc1c2c(cn1C)N(C)C(=O)C(OC(=O)C(C)C)N=C2c1ccccc1Cl (centres unmarked) [Example 9, 5-(2-chlorophenyl)-1,7-dihydro-1,6,7-trimethyl-3-[(2-methyl-1-oxopropyl)oxy]-pyrrolo[3,4-e][1,4]diazepin-2(3H)-one]	100%	4.1 nM	–	–	5 mg/kg
COc1ccc(C(=O)OC2N=C(c3ccccc3Cl)c3c(cn(C)c3C)N(C)C2=O)cc1 (centres unmarked) [Example 10]	100%	8.1 nM	–	–	–
Cc1c2c(cn1C)N(C)C(=O)C(OC(=O)c1ccc(-c3ccccc3)cc1)N=C2c1ccccc1Cl (centres unmarked) [Example 11]	100%	–	–	–	–
Cc1c2c(cn1C)N(C)C(=O)C(OC(=O)CCC(=O)O)N=C2c1ccccc1Cl (centres unmarked) [Example 13, 1,4-butandioic acid 1-[5-(2-chlorophenyl)-1,3,7-trihydro-1,6,7-trimethyl-2-oxo-pyrrolo[3,4-e][1,4]diazepinyl]ester]	100%	–	–	–	–
Cc1c2c(cn1C)NC(=O)C(OC(=O)CCC(=O)O)N=C2c1ccccc1 (centres unmarked) [Example 14, 1,4-butandioic acid 1-[1,3,7-trihydro-6,7-dimethyl-2-oxo-5-phenyl-pyrrol[3,4-e][1,4]diazepinyl]ester]	100%	–	–	–	–
CCOC(=O)CCCNC(=O)CCC(=O)OC1N=C(c2ccccc2)c2c(cn(C)c2C)NC1=O (centres unmarked) [Example 15, hydrochloride]	100%	38.9 nM	3000 nM	more than 50%	–
CCOC1N=C(c2ccccc2Cl)c2c(cn(C)c2C)N(C)C1=O (centres unmarked) [Example 16, 5-(2-chlorophenyl)-3-ethoxy-1,7-dihydro-1,6,7-trimethyl-pyrrolo[3,4-e][1,4]diazepin-2(3H)-one hydrochloride hydrate]	100%	24.6 nM	–	–	–
COC1N=C(c2ccccc2Cl)c2c(cn(C)c2C)N(C)C1=O.Cl.O (centres unmarked) [Example 17, 5-(2-chlorophenyl)-1,7-dihydro-3-methoxy-1,6,7-trimethyl-pyrrolo[3,4-e][1,4]diazepin-2(3H)-one hydrochloride hydrate]	100%	23 nM	–	–	8 mg/kg
CCOC(=O)CCCNC1N=C(c2ccccc2Cl)c2c(cn(C)c2C)N(C)C1=O (centres unmarked) [Example 18, 5-(2-chlorophenyl)-3-[[3-(ethoxycarbonyl)propyl]amino]-1,7-dihydro-1,6,7-trimethyl-pyrrolo[3,4-e][1,4]diazepin-2(3H)-one]	–	46.1 nM	–	–	–
